The values below come from PMC8222254, “Self-assembly of an anion receptor with metal-dependent kinase inhibition and potent in vitro anti-cancer properties” (Nature Communications, 2021).

“And” between values parts separate entries of the source, which are not always exact repeats. Equal entries are not always repeated.

In one assay the test system is ARPE-19. The experiment in a line: Immunoblotting of whole cell protein lysates. The conditions noted are these: for levels of p53: ARPE19, 5 µM, 40 h. It is filed as cell-based, human. The procedure: (§1) ARPE-19 and HCT116 p53^+/+ cells were seeded at a density of 3 × 10^5 (ARPE-19) or 5 × 10^5 (HCT116 p53^+/+) in T25 flasks. 24 h after seeding, cells were treated with 10 µM of [L2Cu3]^6+, [L2Zn3]^6+, or vehicle control for 4 h (Fig. 8b) or 5 μM of [L2Cu3]^6+, [L2Zn3]^6+, or vehicle control for 40 h (Fig. 10). Cells were then harvested and lysed in RIPA buffer (Sigma) with the protein concentration of lysates determined by the BCA assay.
(§2) Protein lysates and recombinant proteins were resolved on 15% SDS polyacrylamide gels. Proteins were electroblotted onto nitrocellulose membrane by wet transfer in 1xTris Glycine buffer (Biorad) at 35 mA overnight at room temperature. After blocking of membranes, these were incubated with primary antibody overnight at 4 °C before addition of rabbit or mouse secondary antibody (HRP-conjugated; 1:5000, Dako P0448 or P0260) for 1 h at room temperature and development of blots by enhanced chemiluminescence. Primary antibodies were: anti-Src (total) (Cell Signalling Technology #2123 1:1000), anti-phosphorylated Src (Y527) (Cell Signalling Technology #21055 1:1000), anti-phosphorylated Src (Y416) (Cell Signalling Technology #69435 1:1000), anti-AMPKα (total) (Cell Signalling Technology #2532 1:1000), anti-phosphorylated AMPKα (T172) (Cell Signalling Technology #2535 1:1000), anti-AMPKβ1 (total) (Cell Signalling Technology #4150 1:1000), anti-phosphorylated AMPKβ1 (S108) (abcam ab156890 1:500), anti-phospho-Tyr (pan) (Cell Signalling Technology #8954 1:2000), anti-p53 (Santa Cruz, DO-1 clone, 1:1000,), anti-phosphorylated LDH-A (Y10) (Cell Signalling Technology #8176 1:1000), anti-LDH-A/B (total) (abcam ab134187 1:5000), anti-β-actin (Merck MAB1501, 1:40,000). Quantification of signals was performed by densitometry using Image J software. Uncropped and unprocessed scans are provided in the Source Data file.

For another assay, the system named is HCT116 p53+/+. The experiment in a line: Immunoblotting of whole cell protein lysates. It is filed as cell-based, human. The method, then: as §1, §2
Assay [1] concerns the target T1, recombinant human AMPK (α1β2γ1) (Homo sapiens, UniProt Q13131).
T1 construct: purchased Promega
Briefly: ATP competition kinase assay. It is filed as biochemical. The procedure: ATP competition kinase assays were performed by the MRC Protein Phosphorylation and Ubiquitination Unit International Centre for Kinase Profiling (University of Dundee). Inhibition of recombinant human AMPK (α1β2γ1) by 10μM [L2Cu3]^6+ or [L2Zn3]^6+ was evaluated at five different ATP concentrations (0.5, 2, 20, 200 and 500 µM ATP). Substrate competition assays were performed using the ADP-Glo Kinase Assay (Promega) and recombinant human AMPK (α1β2γ1) (Promega) with concentrations of the provided AMPK substrate (SAMStide substrate, Promega) ranging from 1 to 15 mg/ml. Following pre-incubation of substrate with kinase for 5 min 10 µM [L2Cu3]^6+, [L2Zn3]^6+ or solvent control and 50 µM ATP was added to start the kinase reaction. For determination of the effects of AMP on AMPK inhibition by [L2Zn3]^6+, the ADP-Glo Kinase Assay (Promega) was performed in presence of varying of AMP (0, 80, 160 μM).

T1 sequence (Q13131 whole entry): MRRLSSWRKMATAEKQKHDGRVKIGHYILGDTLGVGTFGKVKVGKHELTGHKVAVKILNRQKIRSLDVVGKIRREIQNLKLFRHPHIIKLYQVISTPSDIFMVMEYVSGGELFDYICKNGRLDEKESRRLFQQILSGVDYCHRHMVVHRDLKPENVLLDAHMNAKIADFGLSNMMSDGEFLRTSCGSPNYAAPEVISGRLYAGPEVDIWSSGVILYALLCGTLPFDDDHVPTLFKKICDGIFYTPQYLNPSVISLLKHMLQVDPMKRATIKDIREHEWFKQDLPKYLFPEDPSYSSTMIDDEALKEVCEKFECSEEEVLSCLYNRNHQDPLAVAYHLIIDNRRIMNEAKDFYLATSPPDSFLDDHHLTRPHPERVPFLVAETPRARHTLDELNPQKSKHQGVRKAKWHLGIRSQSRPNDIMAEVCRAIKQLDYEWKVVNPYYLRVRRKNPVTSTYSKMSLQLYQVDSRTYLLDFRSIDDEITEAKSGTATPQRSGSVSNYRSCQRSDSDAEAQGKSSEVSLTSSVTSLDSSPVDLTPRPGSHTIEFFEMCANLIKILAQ
T1 sequence (O43741 whole entry partner): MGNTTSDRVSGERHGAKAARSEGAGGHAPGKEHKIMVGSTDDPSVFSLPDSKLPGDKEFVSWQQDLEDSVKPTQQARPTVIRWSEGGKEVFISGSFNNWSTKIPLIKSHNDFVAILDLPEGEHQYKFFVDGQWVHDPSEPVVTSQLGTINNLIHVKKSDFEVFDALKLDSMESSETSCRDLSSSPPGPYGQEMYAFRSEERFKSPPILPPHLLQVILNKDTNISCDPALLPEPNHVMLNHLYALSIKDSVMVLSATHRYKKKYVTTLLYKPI
T1 sequence (P54619 whole entry partner): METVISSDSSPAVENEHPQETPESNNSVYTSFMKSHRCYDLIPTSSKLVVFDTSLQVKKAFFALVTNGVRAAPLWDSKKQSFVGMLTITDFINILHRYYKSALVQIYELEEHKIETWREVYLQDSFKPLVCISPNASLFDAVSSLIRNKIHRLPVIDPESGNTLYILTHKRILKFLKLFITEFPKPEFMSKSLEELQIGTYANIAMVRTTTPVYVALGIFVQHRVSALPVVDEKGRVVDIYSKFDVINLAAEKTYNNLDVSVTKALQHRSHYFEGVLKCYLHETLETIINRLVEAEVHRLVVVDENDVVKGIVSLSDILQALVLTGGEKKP

On to `[Cu+2].[Cu+2].[Cu+2].c1ccc(-c2csc(NCCN(CCNc3nc(-c4ccccn4)cs3)CCNc3nc(-c4ccccn4)cs3)n2)nc1.c1ccc(-c2csc(NCCN(CCNc3nc(-c4ccccn4)cs3)CCNc3nc(-c4ccccn4)cs3)n2)nc1` [[L2Cu3]6+], for which the “levels of p53” value with ARPE-19 is reported as “decreased”. Further, in the assay on HCT116 p53+/+ (HCT116, 5 µM, 40 h), the “increase of p53 levels” value is recorded as ~ 1.7 fold. For the same compound, the “% Activity remaining compared to 100% DMSO controls, individual replicates” value in assay [1] (ATP conc 0.5 µM) is 12.56% and 14.65% and 16.05%; in assay [1] (ATP conc 2 µM) it was 15.11% and 18.68% and 17.31%; in assay [1] (ATP conc 20 µM) it was 12.85% and 11.15% and 12.56%; in assay [1] (ATP conc 200 µM) it was 10.11% and 10.01% and 10.69%; in assay [1] (ATP conc 500 µM), 20.03% and 18.99% and 20.22%. In addition, the “Mean Activity (%) remaining compared to 100% DMSO controls” value in assay [1] (ATP conc 0.5 µM) is 14.42%; in assay [1] (ATP conc 2 µM) it was 17.03%; in assay [1] (ATP conc 20 µM), 12.19%; in assay [1] (ATP conc 200 µM), 10.27%; in assay [1] (ATP conc 500 µM), 19.74%.

Regarding `CC(=O)[O-].CC(=O)[O-].CC(=O)[O-].CC(=O)[O-].CC(=O)[O-].CC(=O)[O-].[Zn+2].[Zn+2].[Zn+2].c1ccc(-c2csc(NCCN(CCNc3nc(-c4ccccn4)cs3)CCNc3nc(-c4ccccn4)cs3)n2)nc1.c1ccc(-c2csc(NCCN(CCNc3nc(-c4ccccn4)cs3)CCNc3nc(-c4ccccn4)cs3)n2)nc1` [[L2Zn3]6+], the “levels of p53” value in the assay with ARPE-19 is recorded as “decreased”. Moreover, in the assay on ARPE-19 (ARPE-19, 10µM, 4h, n=1), the “p-Y10 LDH-A” value was “modestly decrease”. Further, in the assay on HCT116 p53+/+ (HCT116, 5 µM, 40 h), the “cellular levels of T172P of AMPKα relative to total AMPKα” value is given as “increased”. For the same compound, in the assay on HCT116 p53+/+ (HCT116, 5 µM, 40 h), the “increase of p53 levels” value is recorded as ~ 2.7 fold. Further, the “decrease in total levels of Tyr-phosphorylated proteins” value in the assay on HCT116 p53+/+ (HCT116, 5 µM, 40 h, pan phospho-tyrosine antibody) was ~ 10%. Moreover, in the assay with HCT116 p53+/+ (HCT116 cancer cells, 10 µM, 4 h), the “cellular phospho-Thr172 AMPKα levels” value was “decreased”. The “% Activity remaining compared to 100% DMSO controls, individual replicates” value in assay [1] (ATP conc 0.5 µM) is 17.76% and 11.76% and 14.76%; in assay [1] (ATP conc 2 µM), 15.06% and 12.57% and 9.46%; in assay [1] (ATP conc 20 µM), 16.58% and 14.33% and 12.68%; in assay [1] (ATP conc 200 µM), 16.91% and 18.22% and 15.98%; in assay [1] (ATP conc 500 µM), 15.73% and 11.81% and 15.83%. In addition, the “Mean Activity (%) remaining compared to 100% DMSO controls” value is reported as 14.76% in assay [1] (ATP conc 0.5 µM); 12.36% in assay [1] (ATP conc 2 µM); 14.53% in assay [1] (ATP conc 20 µM); 17.04% in assay [1] (ATP conc 200 µM); 14.46% in assay [1] (ATP conc 500 µM).
